Data on one molecule can be found in PMC4938916, “Effect of mutations to amino acid A301 and F361 in thermostability and catalytic activity of the β-galactosidase from Bacillus subtilis VTCC-DVN-12-01” (BMC Biochemistry, 2016).

Assay in all cases: o-nitrophenol release at […] nm, Lineweaver-Burk
What all share (type): biochemical
Common to all, as to details: 100 mM buffer Z (1 mM MgSO4, 50 mM 2-mercaptoethanol), pH 7.0, 55 °C; apparent

The target in test [1] is T1, β-galactosidase LacA (LacA-WT) (Bacillus subtilis, UniProt O07012, A286V, form not given).
T1 construct: gene ganA; full lacA gene (2061 bp) in pET22b(+), C-terminal 6xHis tag kept, E. coli JM109(DE3), Ni ProBond purified, 70 kDa, GH42

Test [2] addresses T2, β-galactosidase LacA (LacA-WT) (Bacillus subtilis, UniProt O07012, F346Y, form not given).
T2 construct: gene ganA; full lacA gene (2061 bp) in pET22b(+), C-terminal 6xHis tag kept, E. coli JM109(DE3), Ni ProBond purified, 70 kDa, GH42

Test [3] deals with T3, β-galactosidase LacA (LacA-WT) (Bacillus subtilis, UniProt O07012).
T3 construct: gene ganA; full lacA gene (2061 bp) in pET22b(+), C-terminal 6xHis tag kept, E. coli JM109(DE3), Ni ProBond purified, 70 kDa, GH42
T3 sequence (O07012 whole entry): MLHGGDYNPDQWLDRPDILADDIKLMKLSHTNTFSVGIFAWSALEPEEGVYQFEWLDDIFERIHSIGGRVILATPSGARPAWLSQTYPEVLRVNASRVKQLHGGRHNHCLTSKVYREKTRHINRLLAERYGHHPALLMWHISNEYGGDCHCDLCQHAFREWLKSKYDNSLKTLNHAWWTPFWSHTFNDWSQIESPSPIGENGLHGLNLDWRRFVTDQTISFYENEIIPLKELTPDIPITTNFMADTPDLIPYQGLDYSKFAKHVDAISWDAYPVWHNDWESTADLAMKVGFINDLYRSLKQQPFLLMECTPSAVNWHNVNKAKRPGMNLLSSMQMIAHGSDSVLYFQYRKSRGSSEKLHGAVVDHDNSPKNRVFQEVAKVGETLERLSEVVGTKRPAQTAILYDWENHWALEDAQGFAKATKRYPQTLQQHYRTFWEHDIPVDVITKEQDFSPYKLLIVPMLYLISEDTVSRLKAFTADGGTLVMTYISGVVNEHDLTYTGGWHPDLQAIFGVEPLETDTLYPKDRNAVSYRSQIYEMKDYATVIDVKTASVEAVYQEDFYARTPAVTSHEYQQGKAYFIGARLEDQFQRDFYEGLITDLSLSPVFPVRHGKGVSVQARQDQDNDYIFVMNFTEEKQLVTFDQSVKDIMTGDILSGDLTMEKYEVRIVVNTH

T1 sequence (O07012 whole entry A286V, form open): as the sequence (O07012 whole entry) above, with A286V counted along it
T2 sequence (O07012 whole entry F346Y, form open): as the sequence (O07012 whole entry) above, with F346Y counted along it

For `O=[N+]([O-])c1ccccc1O[C@@H]1O[C@H](CO)[C@H](O)[C@H](O)[C@H]1O` [oNPG, Ortho-nitrophenyl-β-D-galactopyranoside], the Michaelis constant (Km) (in general, the substrate concentration at which the rate is half of its maximum) worked out at 5.57 ± 0.56 mM in test [1], 8.02 ± 0.27 mM in test [2] and 9.28 ± 0.72 mM in test [3].
